# Test results reported in US6716833B2, “Acetylenic α-amino acid-based sulfonamide hydroxamic acid tace inhibitors” (priority 1999, dated 2004).
# Legend:
# [1] = tested on: THP-1 cells; assay: THP-1 soluble protein assay, soluble TNF-α (ELISA); format: cell-based, human; settings: Homo sapiens, THP-1, 3 μM; THP-1 cells; read-out: THP % Inhibition @ 3 μM
# [2] = target: MMP-13 (Homo sapiens, UniProt P45452); assay: MMP-13 inhibition (thiopeptide or fluorescent peptide substrate); format: biochemical; settings: read-out: MMP-13 IC50
# [3] = target: T1, MMP-1 (Homo sapiens, UniProt P03956); assay: MMP-1 inhibition (thiopeptide or fluorescent peptide substrate); format: biochemical; settings: read-out: MMP-1 IC50
# T1 sequence (P03956 100-469): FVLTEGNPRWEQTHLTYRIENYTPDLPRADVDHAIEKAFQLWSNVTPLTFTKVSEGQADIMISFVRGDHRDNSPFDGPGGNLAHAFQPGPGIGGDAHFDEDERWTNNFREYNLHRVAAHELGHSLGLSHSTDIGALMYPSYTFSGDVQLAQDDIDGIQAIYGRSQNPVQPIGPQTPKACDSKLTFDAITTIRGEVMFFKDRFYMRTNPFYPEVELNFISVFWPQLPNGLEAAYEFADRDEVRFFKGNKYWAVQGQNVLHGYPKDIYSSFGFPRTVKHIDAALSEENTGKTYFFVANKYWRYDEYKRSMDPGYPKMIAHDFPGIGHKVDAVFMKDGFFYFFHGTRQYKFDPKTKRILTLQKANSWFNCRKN
# [4] = target: TNF-α converting enzyme (TACE) (Homo sapiens, UniProt P78536); assay: TACE inhibition (fluorescent peptidyl substrate); format: biochemical; settings: read-out: TACE IC50
# Chain of TNF-α converting enzyme (TACE) (P78536 215-824, species assumed): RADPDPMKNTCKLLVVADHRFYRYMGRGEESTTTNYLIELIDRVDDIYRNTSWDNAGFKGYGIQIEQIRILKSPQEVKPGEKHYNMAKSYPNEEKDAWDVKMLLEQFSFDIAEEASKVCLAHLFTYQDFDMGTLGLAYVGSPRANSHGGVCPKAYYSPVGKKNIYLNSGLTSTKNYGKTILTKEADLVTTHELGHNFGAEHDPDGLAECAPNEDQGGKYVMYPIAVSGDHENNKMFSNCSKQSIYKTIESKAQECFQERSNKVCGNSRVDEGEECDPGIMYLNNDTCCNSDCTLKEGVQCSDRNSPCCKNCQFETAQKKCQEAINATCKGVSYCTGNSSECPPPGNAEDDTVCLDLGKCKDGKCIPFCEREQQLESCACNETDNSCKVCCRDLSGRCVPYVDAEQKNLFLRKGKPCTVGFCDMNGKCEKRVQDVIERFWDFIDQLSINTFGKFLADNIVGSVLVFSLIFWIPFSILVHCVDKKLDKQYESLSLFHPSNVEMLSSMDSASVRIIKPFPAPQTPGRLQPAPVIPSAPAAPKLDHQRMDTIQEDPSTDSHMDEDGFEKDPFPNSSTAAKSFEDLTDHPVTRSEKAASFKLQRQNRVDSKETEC
# [5] = target: MMP-9 (Homo sapiens, UniProt P14780); assay: MMP-9 inhibition (thiopeptide or fluorescent peptide substrate); format: biochemical; settings: read-out: MMP-9 IC50
# Chain of MMP-9 (P14780 94-707): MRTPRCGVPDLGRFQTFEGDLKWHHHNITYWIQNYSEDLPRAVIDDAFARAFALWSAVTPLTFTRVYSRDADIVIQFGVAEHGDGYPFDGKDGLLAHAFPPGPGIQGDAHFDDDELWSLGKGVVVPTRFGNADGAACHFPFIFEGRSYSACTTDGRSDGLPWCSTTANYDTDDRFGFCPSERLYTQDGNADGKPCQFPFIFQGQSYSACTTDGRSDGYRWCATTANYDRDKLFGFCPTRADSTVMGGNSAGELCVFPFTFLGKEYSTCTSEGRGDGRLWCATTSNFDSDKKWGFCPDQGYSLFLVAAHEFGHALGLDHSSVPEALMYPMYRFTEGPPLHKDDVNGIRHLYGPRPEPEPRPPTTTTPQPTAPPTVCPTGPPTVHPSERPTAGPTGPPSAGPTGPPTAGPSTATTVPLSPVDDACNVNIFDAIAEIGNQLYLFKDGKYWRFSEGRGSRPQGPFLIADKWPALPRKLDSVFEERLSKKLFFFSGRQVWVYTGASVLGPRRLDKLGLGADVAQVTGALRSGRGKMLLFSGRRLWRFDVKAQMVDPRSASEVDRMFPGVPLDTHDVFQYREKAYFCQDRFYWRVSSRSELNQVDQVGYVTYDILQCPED
Structure (SMILES),IC50 [2],IC50 [3],melting point,IC50 [4],IC50 [5],inhibition at 3 µM [1]
"CC#CCOc1ccc(S(=O)(=O)NC(C(=O)NO)C(C)(C)SCCC)cc1 (stereo not drawn) [Example 160, 2-[(4-but-2-ynyloxy-Benenesulfonyl)-amino]-N-hydroxy-3-methyl-3-propylsulfanyl-butyramide]",65 nM,1400 nM,152 to 155 °C,15 nM,1010 nM,67%
CC#CCOc1ccc(S(=O)(=O)NC(C(=O)NO)C(C)(C)SCc2nccn2C)cc1 (stereo not drawn) [Example 163],47 nM,1720 nM,112 to 115 °C,18 nM,306 nM,77%
CC#CCOc1ccc(S(=O)(=O)NC(C(=O)NO)C(C)(C)SCC(=O)OC(C)(C)C)cc1 (stereo not drawn) [Example 165],177 nM,2430 nM,47 to 52 °C,69 nM,587 nM,84%

# Compounds with a lower IC50 [2], results first:
IC50 [2],IC50 [3],melting point,IC50 [4],IC50 [5],Structure (SMILES),inhibition at 3 µM [1]
8.3 nM,310 nM,92 to 95 °C,19 nM,138 nM,CC#CCOc1ccc(S(=O)(=O)NC(C(=O)NO)C(C)(C)SCc2ccccc2)cc1 (stereo not drawn) [Example 162],49%
20 nM,1570 nM,72 °C,64 nM,204 nM,CC#CCOc1ccc(S(=O)(=O)NC(C(=O)NO)C(C)(C)SCCN2CCOCC2)cc1 (stereo not drawn) [Example 164],70%
